Results taken from patent publication US20230381176A1, “A PHARMACEUTICAL COMPOSITION AND USE THEREOF FOR TREATMENT OF CANCER” (Ascentage Pharma (Suzhou) Co., Ltd., priority 2020, published 2023).

Assays:
[1] = tested on: PTK2 high ovarian PDX OV2423; assay: PTK2 high ovarian PDX model OV2423, Compound 5 and carboplatin and/or paclitaxel; type: in vivo, mouse; settings: for RTV on Day 28 after administration (mean ± standard error) / T/C on Day 28 after administration (%): Compound 5 50 mg/kg orally once per day, carboplatin 30 mg/kg i.p. once a week, paclitaxel 10 mg/kg i.v. once a week, 28 days; for mRECIST: animals per class; for antitumor activity (conclusion in words): mouse, in vivo
Description: (§1) A subcutaneous xenograft tumor model of human tumor immunodeficient mice was established by cell inoculation: tumor cells in logarithmic growth phase were collected, counted, resuspended in 1×PBS, and the cell suspension concentration was adjusted to 2.5-5 ×10^7/mL. The tumor cells were inoculated subcutaneously in the right side of immunodeficient mice with a 1 mL syringe ([…]), 5-10×10^6/0.2 mL/mouse. All animal experiments were strictly in accordance with the specifications for the use and management of experimental animals in GenePharma Co., Ltd. and Suzhou Ascentage Pharma Co., Ltd. The calculation of relevant parameters refers to the Chinese NMPA “Guidelines for Non-Clinical Research Techniques of Cytotoxic Anti-tumor Drugs”.
(§2) Animal body weight and tumor size were measured twice weekly during the experiment. The state of the animal and the presence or absence of death were observed every day. The growth of tumor and the effects of treatment on normal behavior of animals were monitored routinely, specifically involving experimental animal activity, feeding and drinking, weight gain or loss, eyes, clothing hair and other abnormalities. The deaths and clinical symptoms observed during the experiment were recorded in the raw data. All operations for administration and measurement of mouse body weight and tumor volume were performed in a clean bench. According to the requirements of the experimental protocol, after the end of the last administration, plasma and tumor tissues were collected, weighed and photographed. The plasma and tumor samples were frozen at −80° C. for ready-to-use.
(§3) Tumor volume (TV) is calculated as: TV=a×b^2/2, wherein a and b represent the length and width of the tumor to be measured, respectively.
(§4) The relative tumor volume (RTV) is calculated as: RTV=Vt/V1, wherein V1 is the tumor volume at the start of grouping and administration, and Vt is the tumor volume measured on the t day after administration.
(§5) Change of body weight (%)=(measured body weight−body weight at the start of grouping)/body weight at the start of grouping×100%.
(§6) A dose of drug is considered to be severely toxic if the body weight of mouse is reduced by more than 20% or the number of drug-related deaths exceeds 20%.
(§7) According to the description by Clarke R., Issues in experimental design and endpoint analysis in the study of experimental cytotoxic agents in vivo in breast cancer and other models [J]. Breast Cancer Research & Treatment, 1997, 46(2-3): 255-278, synergy analysis was evaluated using the following formula: synergy factor=((A/C)×(B/C))/(AB/C); A=RTV value of drug A alone group; B=RTV value of drug B alone group; C=RTV value of the solvent control group, and AB=RTV value of the A and B combination group.
(§8) Use of mRECIST (Gao et al., 2015) measured tumor responses included stable disease (SD), partial tumor regression (PR), and complete regression (CR), determined by comparing tumor volume change at day t to its baseline: tumor volume change (%)=(Vt−V1)/V1. The BestResponse was the minimum value of tumor volume change (%) for t≥10. For each time t, the average of tumor volume changes from t=1 to t was also calculated. BestAvgResponse was defined as the minimum value of this average for t≥10. The criteria for response (mRECIST) were adapted from RECIST criteria (Gao et al., 2015; Therasse et al., 2000) and defined as follows: mCR, BestResponse<−95% and BestAvg Response<−40%; mPR, BestResponse<−50% and BestAvgResponse<−20%; mSD, BestResponse<35% and BestAvgResponse<30%; mPD, not otherwise categorized. SD, PR, and CR were considered responders and used to calculate response rate (%). […] Body weight of animals were monitored simultaneously. The change in body weight was calculated based on the animal weight of the first day of dosing (day 1). Tumor volume and changes in body weight (%) were represented as the mean±standard error of the mean (SEM).

[2] = tested on: PTK2 high ovarian PDX OV1385; assay: PTK2 high ovarian PDX model OV1385, Compound 5 and carboplatin and/or paclitaxel; type: in vivo, mouse; settings: for RTV on Day 35 after administration (mean ± standard error) / T/C on Day 35 after administration (%): Compound 5 50 mg/kg orally once per day, carboplatin 30 mg/kg i.p. once a week, paclitaxel 10 mg/kg i.v. once a week, 35 days; for mRECIST on Day 35 after administration: Day 35, animals per class; for antitumor activity (conclusion in words): mouse, in vivo
Description: as §1, §2, §3, §4, §5, §6, §7, §8

[3] = tested on: PTK2 high NSCLC PDX LU-01-0604; assay: s.c. PTK2 high NSCLC PDX model LU-01-0604, Compound 5 and carboplatin; type: in vivo, mouse
Description: as §1, §2, §3, §4
(§9) The evaluation index of anti-tumor activity is the relative tumor proliferation rate T/C (%), and the calculation formula thereof is: relative tumor proliferation rate T/C (%)=(TRTV/CRTV)×100%, TRTV is the RTV of treatment group, CRTV is the RTV of solvent control group.
as §5, §6, §7
as §8, with “The change in body weight was calculated based on the animal weight of the first day of dosing (day 1). Tumor volume and changes in body weight (%) were represented as the mean±standard error of the mean (SEM).” left out

ovarian PDX OV1658 = assay: Ovarian PDX model OV1658, Compound 5 and carboplatin and/or paclitaxel; type: in vivo, mouse; settings: for RTV on Day 19 after administration (mean ± standard error) / T/C on Day 19 after administration (%): Compound 5 50 mg/kg orally once per day, carboplatin 30 mg/kg i.p. once a week, paclitaxel 10 mg/kg i.v. once a week, 19 days; for mRECIST on Day 19 after administration: Day 19, animals per class; for mRECIST: best response, animals per class; for antitumor activity (conclusion in words): mouse, in vivo
Description: as §1, §2, §3, §4, §5, §6, §7, §8

ovarian PA-1 xenograft = assay: s.c. ovarian PA-1 xenograft tumor model, Compound 5 and carboplatin; type: in vivo, mouse; settings: Compound 5 100 mg/kg orally once per day 21 days, carboplatin 50 mg/kg i.p. once on Day 1
Description: as §1, §2, §3, §4, §9, §5, §6, §7
Use of mRECIST (Gao et al., 2015) measured tumor responses included stable disease (SD), partial tumor regression (PR), and complete regression (CR), determined by comparing tumor volume change at day t to its baseline: tumor volume change (%)=(Vt−V1)/V1. The BestResponse was the minimum value of tumor volume change (%) for t≥10. For each time t, the average of tumor volume changes from t=1 to t was also calculated. […] Body weight of animals were monitored simultaneously. […]

NCI-H2228 tumor cells = assay: Cell viability WST (CCK-8) assay, combination of Compound 5 and Compound 34; type: cell-based; settings: Homo sapiens, 72 hours, single agent, read-out: Compound B IC50
Description: Cell plating: Anti-proliferative effects were detected by a CCK-8 (Cell Counting Kit-8, Shanghai life iLab, China) assay based on water soluble tetrazolium salt (WST). The cells were seeded in 96-well plates, and only 95 μL of complete medium was added to each negative control group. 95 μL of complete medium cell suspension was added to each well to be tested, and the cell density was (5-10)×10^4/hole. Dosing (protection from light): […] After 72 hours of action by using 6 different concentrations of Compound 34 with 3 fixed doses of Compound 5, the combination effect of Compound 5 an Compound 34 was tested. Reading: […] The plates were continuously incubated at 37 ° C. for 2-4 hours in a CO2 incubator. The OD values were measured using a microplate reader (SpectraMax Plus 384, Molecular Devices, LLC., US) under A450 nm. […] (O.D. of test well−O.D. of blank control well)/(O.D. of cell control well−O.D. of blank control well)×100%. IC50 values were calculated using Graphpad Prism 6.0 software for nonlinear regression data analysis method.

[4] = tested on: PTK2 high ovarian PDX OV2018; assay: PTK2 high ovarian PDX model OV2018, Compound 5 and paclitaxel; type: in vivo, mouse
Description: as §1, §2, §3, §4, §5, §6, §7, §8

[5] = tested on: OVCAR3 s.c. ovarian xenograft; type: in vivo
Description: as §1, §2, §3, §4, §5, §6, §7, §8

[6] = tested on: OVCAR3 s.c. ovarian xenograft; assay: OVCAR3 s.c. ovarian xenograft model, overcoming resistance to paclitaxel / paclitaxel and carboplatin; type: in vivo, mouse
Description: as §1
as §2, with “All operations for administration and measurement of mouse body weight and tumor volume were performed in a clean bench. According to the requirements of the experimental protocol, after the end of the last administration, plasma and tumor tissues were collected, weighed and photographed.” left out
as §3, §4
Change of body weight (%)=(measured body weight−body weight at the start of grouping)/body weight at the start of grouping×100%. […]
Use of mRECIST (Gao et al., 2015) measured tumor responses included stable disease (SD), partial tumor regression (PR), and complete regression (CR), determined by comparing tumor volume change at day t to its baseline: tumor volume change (%)=(Vt−V1)/V1. […]

A549 NSCLC xenograft = assay: s.c. A549 NSCLC lung cancer model, Compound 5 and panobinostat; type: in vivo, mouse; settings: Compound 5 100 mg/kg orally once per day, panobinostat 3 mg/kg i.p. 5 days then 2 days break, 14 days
[7] = Compound 5 50 mg/kg orally once per day, carboplatin 30 mg/kg i.p. once per week, 29 days
[8] = Compound 5 50 mg/kg orally once per day, paclitaxel 10 mg/kg i.v. once a week, 35 days
[9] = best response, animals per class
[10] = Compound 5 100 mg/kg orally once per day, paclitaxel 10 mg/kg i.v. once a week, carboplatin 30 mg/kg i.v. once a week

Row | SMILES | RTV on Day 28 after administration (mean ± standard error) [1] | T/C on Day 28 after administration (%) [1] | mRECIST [1] | antitumor activity (conclusion in words) [1] | RTV on Day 35 after administration (mean ± standard error) [2] | T/C on Day 35 after administration (%) [2] | mRECIST on Day 35 after administration [2] | antitumor activity (conclusion in words) [2] | RTV on Day 19 after administration (mean ± standard error) (ovarian PDX OV1658) | T/C on Day 19 after administration (%) (ovarian PDX OV1658) | mRECIST on Day 19 after administration (ovarian PDX OV1658) | mRECIST (ovarian PDX OV1658) | antitumor activity (conclusion in words) (ovarian PDX OV1658) | other results
1 | N.N.O=C([O-])C1(C(=O)[O-])CCC1.[Pt+2] [Carboplatin, carboplatin] | 8.97 ± 1.24 | 47.76% | 2/2 PD | moderate antitumor activity | 2.08 ± 0.49 | 51.49% | 2/2 PD | moderate antitumor activity | 9.34 ± 2.01 | 68.37% | 2/2 PD | 2/2 PD | minor antitumor activity | RTV on Day 29 after administration (mean ± standard error) [3, 7]: 11.15 ± 6.55; T/C on Day 29 after administration (%) [3, 7]: 127.72%; antitumor activity (conclusion in words) ([3]; mouse, in vivo): no antitumor activity; RTV on Day 22 after administration (mean ± standard error) (ovarian PA-1 xenograft): 15.1 ± 2.3; T/C on Day 22 after administration (%) (ovarian PA-1 xenograft): 94.97%
2 | Cc1ccc(C(=O)Nc2ccc(CN3CCN(C)CC3)c(C(F)(F)F)c2)cc1C#Cc1cnc2[nH]ncc2c1 [Compound 34] | – | – | – | – | – | – | – | – | – | – | – | – | – | IC50 (NCI-H2228 tumor cells): 1680 nM
3 | CC(=O)O[C@H]1C(=O)[C@@]2(C)[C@H]([C@H](OC(=O)c3ccccc3)[C@]3(O)C[C@H](OC(=O)[C@H](O)[C@@H](NC(=O)c4ccccc4)c4ccccc4)C(C)=C1C3(C)C)[C@]1(OC(C)=O)CO[C@@H]1C[C@@H]2O [Paclitaxel, paclitaxel] | 9.54 ± 1.73 | 50.80% | 2/2 PD | moderate antitumor activity | 1.80 ± 0.75 | 44.55% | 2/2 PD | moderate antitumor activity | 11.79 | 86.31% | 2/2 PD | 2/2 PD | minor antitumor activity | RTV on Day 35 after administration (mean ± standard error) [4, 8]: 2.87 ± 0.24; T/C on Day 35 after administration (%) [4, 8]: 118.60%; mRECIST on Day 35 after administration ([4]; Day 35, animals per class): 2/2 PD; mRECIST [4, 9]: 2/2 PD; antitumor activity (conclusion in words) ([4]; mouse, in vivo): no antitumor activity; mRECIST [2, 9]: 2/2 PD; RTV on Day 35 after administration (mean ± standard error) [5, 10]: 8.02 ± 1.30; T/C on Day 35 after administration (%) [5, 10]: 52.14%; mRECIST ([5]; animals per class): 5/5 PD; antitumor activity (conclusion in words) ([5]; mouse, in vivo): moderate antitumor activity; Overall regression rate (ORR), % ([5]; proportion of animals with CR or PR): 0%; Disease control rate (DCR), % ([5]; proportion of animals with CR, PR or SD): 0%; DCR (%) ([6]; mouse, in vivo): 20%; ORR (%) ([6]; mouse, in vivo): 0%; RTV on Day 56 after administration (mean ± standard error) ([6]; paclitaxel 10 mg/kg i.v. once a week, carboplatin 30 mg/kg i.v. once a week, Compound 5 100 mg/kg orally once per day from Day 15): 5.19 ± 0.62
4 | Cc1[nH]c2ccccc2c1CCNCc1ccc(/C=C/C(=O)NO)cc1 [panobinostat, reference compound] | – | – | – | – | – | – | – | – | – | – | – | – | – | RTV on Day 14 after administration (mean ± standard error) (A549 NSCLC xenograft): 2.06 ± 0.29; T/C on Day 14 after administration (%) (A549 NSCLC xenograft): 57.54%
